The text below walks through data of ChEMBL document CHEMBL1255420, “Fluoroquinolone resistance in Streptococcus dysgalactiae subsp. equisimilis and evidence for a shared global gene pool with Streptococcus pyogenes” (2010).

Molecules are shown by their SMILES.

Test [1] deals with Streptococcus dysgalactiae subsp. equisimilis. The test is described as follows: Antibacterial activity against gyrA01, parC17 allele containing Streptococcus dysgalactiae subsp. equisimilis with GyrA S79F, S79F/ParC N91D, P140S mutant by CLSI […] method. The test is classed as functional.
The test system is the same in test [2]. The test is described as follows: Antibacterial activity against gyrA04, parC15 allele containing Streptococcus dysgalactiae subsp. equisimilis with GyrA S81F, S79F/ParC N91D mutant by CLSI […] method. The test is classed as functional.
Test [3] shares this test system. Kind of test: Antibacterial activity against gyrA04, parC allele containing Streptococcus dysgalactiae subsp. equisimilis with GyrA S81F, S79F mutant by CLSI […] method. The class given is functional. For orientation: A growth-free zone around the sample is the usual read-out of agar diffusion tests.
The test system is the same in test [4]. The test is described as follows: Antibacterial activity against gyrA01, parC03 allele containing Streptococcus dysgalactiae subsp. equisimilis with GyrA S79P mutant by CLSI […] method. The test is classed as functional.
Test [5] shares this test system. The test is described as follows: Antibacterial activity against gyrA05, parC05 allele containing Streptococcus dysgalactiae subsp. equisimilis with GyrA D142N mutant by CLSI […] method. The class given is functional.
For test [6] the test system is unchanged. The test is described as follows: Antibacterial activity against gyrA03, parC10 allele containing Streptococcus dysgalactiae subsp. equisimilis with GyrA E85K/ParC D83G mutant by CLSI […] method. The class given is functional.
For test [7] the test system is unchanged. Kind of test: Antibacterial activity against gyrA02, parC17 allele containing Streptococcus dysgalactiae subsp. equisimilis with GyrA S81Y, S79F/ParC N91D, P140S mutant by CLSI […] method.
Test [8] shares this test system. The test is described as follows: Antibacterial activity against gyrA04, parC13 allele containing Streptococcus dysgalactiae subsp. equisimilis with GyrA S81F, S79A mutant by CLSI […] method. The test is classed as functional.
For test [9] the test system is unchanged. The test is described as follows: Antibacterial activity against gyrA01, parC19 allele containing Streptococcus dysgalactiae subsp. equisimilis with GyrA S79A/ParC N91D, P140S mutant by CLSI […] method. The class given is functional.
Test [10] shares this test system. Kind of test: Antibacterial activity against gyrA01, parC04 allele containing Streptococcus dysgalactiae subsp. equisimilis with GyrA S79F mutant by CLSI […] method. The class given is functional.
Test [11] has the same test system. The test is described as follows: Antibacterial activity against gyrA01, parC allele containing Streptococcus dysgalactiae subsp. equisimilis by CLSI […] method. The test is classed as functional.
The test system is the same in test [12]. Kind of test: Antibacterial activity against gyrA04, parC14 allele containing Streptococcus dysgalactiae subsp. equisimilis with GyrA S81F/ParC N91D mutant by CLSI […] method. The class given is functional.
Test [13] shares this test system. Kind of test: Antibacterial activity against gyrA01, parC14 allele containing Streptococcus dysgalactiae subsp. equisimilis with ParC N91D mutant by CLSI […] method. The test is classed as functional.
Test [14] shares this test system. The test is described as follows: Antibacterial activity against gyrA04, parC09 allele containing Streptococcus dysgalactiae subsp. equisimilis with GyrA S81F/ParC D83N mutant by CLSI […] method. The test is classed as functional.
For test [15] the test system is unchanged. Kind of test: Antibacterial activity against gyrA01, parC allele containing Streptococcus dysgalactiae subsp. equisimilis with ParC N91D, P140S mutant by CLSI […] method. The class given is functional.
Test [16] has the same test system. Kind of test: Antibacterial activity against gyrA01, parC12 allele containing Streptococcus dysgalactiae subsp. equisimilis with ParC G166E mutant by CLSI […] method. The test is classed as functional.
Test [17] shares this test system. Kind of test: Antibacterial activity against gyrA03, parC08 allele containing Streptococcus dysgalactiae subsp. equisimilis with GyrA E85K, S79F mutant by CLSI […] method. The test is classed as functional.
The test system is the same in test [18]. Kind of test: Antibacterial activity against gyrA03, parC06 allele containing Streptococcus dysgalactiae subsp. equisimilis with GyrA E85K, S79Y mutant by CLSI […] method. The class given is functional.
Test [19] has the same test system. Kind of test: Antibacterial activity against gyrA04, parC17 allele containing Streptococcus dysgalactiae subsp. equisimilis with GyrA S81F, S79F/ParC N91D, P140S mutant by CLSI […] method. The test is classed as functional.

One may read the MIC as the lowest concentration found to suppress growth. A high value points to weaker potency. With `C[C@H]1COc2c(N3CCN(C)CC3)c(F)cc3c(=O)c(C(=O)O)cn1c23.C[C@H]1COc2c(N3CCN(C)CC3)c(F)cc3c(=O)c(C(=O)O)cn1c23.O` [LEVOFLOXACIN], the MIC in test [1] was 1.5 µg/mL; in [2] it was > 32 µg/mL; in test [3], > 32 µg/mL; in test [4], 0.75 µg/mL; in test [5], 0.38 µg/mL; in test [6] it was 8 µg/mL. Also, the minimum inhibitory concentration (MIC) in [7] was > 32 µg/mL; in test [8], 12 µg/mL; in test [9] it was 2 µg/mL; in test [10], 3 µg/mL; in test [11], 0.38 µg/mL; in test [12] it was 4 µg/mL. In addition, the MIC in test [13] is 0.5 µg/mL; in test [14] it was > 8 µg/mL; in [15] it was 0.19 µg/mL; in [16], 1 µg/mL; in test [17], > 32 µg/mL; in test [18] it was > 32 µg/mL. In addition, the minimum inhibitory concentration (MIC) in [19] was > 32 µg/mL.
